Assay results: PubChem BioAssay AID726 (The Scripps Research Institute Molecular Screening Center, 2007)
Activity calls are given as the source filed them.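 The calls were made as follows: active = EC50 at or below 10 µM, fitted or read by hand from inhibition at single concentrations; inactive = EC50 above 10 µM.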

molecular target: 5-hydroxytryptamine receptor 1E (Homo sapiens) (UniProt P28566); test: activation of human 5HT1E serotonin receptor – cell-based, dose response (AID 726); conditions: CHO 5-HT1E/Ga15 NFAT-bla, FRET reporter
Sequence (P28566 whole entry, looked up): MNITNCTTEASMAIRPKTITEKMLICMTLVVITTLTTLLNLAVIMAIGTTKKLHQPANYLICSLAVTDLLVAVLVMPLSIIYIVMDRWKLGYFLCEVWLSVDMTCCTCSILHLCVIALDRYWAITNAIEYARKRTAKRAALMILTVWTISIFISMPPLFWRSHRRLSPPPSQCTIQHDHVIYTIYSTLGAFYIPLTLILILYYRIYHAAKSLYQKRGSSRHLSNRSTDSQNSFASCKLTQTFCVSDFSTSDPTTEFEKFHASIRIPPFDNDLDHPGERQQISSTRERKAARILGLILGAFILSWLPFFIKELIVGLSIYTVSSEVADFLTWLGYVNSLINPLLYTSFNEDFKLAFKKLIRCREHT

| Structure (SMILES) | EC50 |
| --- | --- |
| CCOC(=O)C1CCN(C(c2cccnc2)c2c(NC(=O)c3ccco3)sc(C)c2C)CC1 (centres undefined) | > 50000 nM (inactive) |
| O=C(NCc1ccccc1)NC1(C(=O)N2CCCC2)CCCCC1 | > 50000 nM (inactive) |
| COc1ccc(CN2CCN(c3ccccc3F)CC2)c(OC)c1 | > 50000 nM (inactive) |
| CC(CCc1ccccc1)NC(=O)CSc1nc(N)cc(N)n1 (centres undefined) | > 50000 nM (inactive) |
| COC(=O)CC(=O)Cc1nc(N)nc(Nc2ccc(C)c(C)c2)n1 | > 50000 nM (inactive) |
| Cc1cccc(NC(=O)C2CCCN(C(=O)Nc3ccccc3)C2)c1C (centres undefined) | > 50000 nM (inactive) |
| CN(C)CCCn1c(NC(=O)C2CCCCC2)nc2ccccc21 | 469 nM |
| CCCCc1ccc2[nH]cc(CCN)c2c1 | 11.3 nM |
| COc1cc(CN2CCN(c3cccc(C)c3C)CC2)cc(OC)c1O | > 50000 nM (inactive) |
| CCc1ccc(NC(=O)Cn2c(SC)nc3ccccc32)cc1 | > 50000 nM (inactive) |
| CSc1nc2ccc(NC(=O)C3CCCO3)cc2s1 (centres undefined) | > 50000 nM (inactive) |
| CC(=O)Nc1ccc(S(=O)(=O)N(C)c2ccc(O)cc2)cc1 | > 50000 nM (inactive) |
| CCCCN(CC)Cc1ccc(CNC(=O)Nc2ccc(OC)cc2OC)o1 | 1830 nM |
| CCOC(=O)c1c(C)nc(-c2ccccc2)nc1NC(=O)CC | > 50000 nM (inactive) |
| Cc1cc(C(C)(C)C)cc(C)c1CC1=NCCN1 | 87 nM |
| Cc1[nH]c2c(Cl)cccc2c1CCN | 677 nM |
| Cc1c(CN2CCN(c3cccc(C(F)(F)F)c3)CC2)c(=O)n(-c2ccccc2)n1C | 1840 nM |
| NCCc1c[nH]c2ccc(F)cc12 | 484 nM |
| Cc1[nH]c2c(C(F)(F)F)cccc2c1CCN | 817 nM |
| CCCCN(C)CCCNC(=O)Cn1c(=O)sc2ccccc21 | 3500 nM |
| C1=C(c2c[nH]c3ccccc23)CCNC1 | 15.7 nM |
| Cn1cc(/C(Cc2ccccc2)=N\O)c2ccccc21 | > 50000 nM (inactive) |
| O=C(COC(=O)CCC1CCCC1)Nc1ccc(Cl)cn1 | > 50000 nM (inactive) |
| CCOC(=O)C1CCN(C(=O)Cc2c(C(=O)O)n(C)c3ccccc23)CC1 | > 50000 nM (inactive) |
| CN1CCN(/C(=N\O)c2nonc2N)CC1 | 1170 nM |

| Structure (SMILES) | EC50 |
| --- | --- |
| c1ccc2sc(C3CCCNC3)nc2c1 (centres undefined) | 186 nM |
| CN1CCN2c3ccccc3Cc3ccccc3C2C1 (centres undefined) | 37.8 nM |
| CCN1CC=C(c2c[nH]c3ccccc23)CC1 | 23.9 nM |
| CNCCc1c[nH]c2ccccc12 | 105 nM |
| CN(C)CCOC(=O)c1cn(Cc2ccccc2)c2ccccc12 | 493 nM |
| CCOC(=O)C1=C(C)NC(=O)NC1c1ccc(OCC(=O)Nc2ccccc2)c(OC)c1 (centres undefined) | > 50000 nM (inactive) |
| Cc1cc(C(C)(C)C)c(O)c(C)c1CC1=NCCN1 | 99 nM |
| CCN(CC)c1nc(N2CCOCC2)c(C#N)c2c1CN(C)CC2 | 1750 nM |
| CCOC(=O)c1cc2ccc(OC(=O)c3ccco3)cc2oc1=O | 7500 nM |
| CN1CC=C(c2c[nH]c3ccccc23)CC1 | 6.78 nM |
| O=C(O)C1CCCCC1C(=O)NCCc1c[nH]c2ccccc12 (centres undefined) | 765 nM |
| c1ccc(N2CCN(Cc3cn4cccnc4n3)CC2)cc1 | 1070 nM |
| CC1CN(c2nnnn2-c2ccccc2)CC(C)O1 (centres undefined) | > 50000 nM (inactive) |
| Cc1noc(C)c1COc1ccc(C(=O)OC(C)C(=O)Nc2ccc(N3CCOCC3)cc2)cc1 (centres undefined) | > 50000 nM (inactive) |
| C[N+]1=C2CCCCCN2C(O)(c2ccccc2)C1 (centres undefined) | 1330 nM |
| Cn1c(-c2ccccc2)cnc1SCc1nc2ccccc2c(=O)[nH]1 | > 50000 nM (inactive) |
| Cc1cccc(N2CCN(C(=O)Cc3c(C(=O)O)[nH]c4ccc(Cl)cc34)CC2)c1C | > 50000 nM (inactive) |
| O=S(=O)(c1cccc(Cl)c1)N1CCCC1 | > 50000 nM (inactive) |
| COc1ccc(N(CC(=O)NC2CCCC2)C(=O)Cn2nnc(-c3ccc(C)cc3)n2)cc1OC | > 50000 nM (inactive) |
| CCc1nn(C(C)C(=O)NCCN2CCN(c3cccc(C)c3C)CC2)c(=O)c2cc3occc3n12 (centres undefined) | 2320 nM |
| CC[C@@H](CO)NC(=O)[C@@H]1C=C2c3cccc4c3c(cn4C)C[C@H]2N(C)C1 | 37.5 nM |
| O=C(Nc1cccc(-c2cn3ccsc3n2)c1)c1ccccc1 | > 50000 nM (inactive) |
| CCOC(=O)c1oc2ccccc2c1NC(=O)c1cc(OC)cc(OC)c1 | > 50000 nM (inactive) |
| Cc1[nH]c2ccccc2c1C1=CCNCC1 | 194 nM |
